Results from patent publication US5981592A, “Method and composition for treating cystic fibrosis” (priority 1998, dated 1999).

Tests used:
[1] = system: epithelial cells of the distal colon (crypts); test: Labelling Index (LI) of proliferating crypt cells in distal colon, BrD-U staining; format: in vivo, Female Sprague-Dewley rats; details: rats, 30 days; for LI (Labelling Index): 6.3 mg/Kg/day, distal colon, control 12.62, P<0.05
Source text: The term "effective to elicit a chemoprotective effect" was used herein means that abnormal cell proliferation is reduced. A method of measuring cell proliferation in animals is the Labelling Index (LI). Epithelial cells of the distal colon are stained using a histologic biomarker of proliferating cells. Microscopic examination allows for quantification of the proportion of proliferating cells in the crypts. A high proportion of proliferating cells or LI, particularly in the upper portion of the crypts, is an indicator of abnormal cell proliferation. A reduction in the LI of at least 10 to 50%, preferably at least 30% is associated with the reduction of abnormal cell proliferation. Of course, the particular R-NSAID used must be enantiomerically stable in the animal species being tested.
(§1) A study was performed to compare the R- and S-isomers of flurbiprofen with regard to their effect on the Labelling Index (LI) and duodenal ulceration in contrast to the S-isomer.
(§2) Female Sprague-Dewley rats were randomized to 4 groups (N=10) receiving 6.3 mg/Kg/day R-flurbiprofen; 6.3 mg/Kg/day S-flurbiprofen; 12.5 mg/Kg/day racemic flurbiprofen; or vehicle control. Fasted rats were sacrificed after 30 days. Small bowel ulcer score was recorded in each group.
The LI is calculated using a histologic biomarker of proliferating cells, a monoclonal antibody to Bromo-deoxyuridine (BrD-U). Intestinal crypts are examined microscopically in longitudinal sections such that proliferating cells are identified and quantified as a proportion of total crypt cells. An LI was determined for each rat using BrD-U staining to identify the proportion of mitotic cells in the crypt of Leiberkuhn. Twelve well-oriented crypts (distal colon) were examined in each rat.

[2] = system: cystic fibrosis lung disease; details: cited from earlier work
[3] = system: white cell count in the blood; details: in vivo; cited from earlier work
neutrophils = details: high doses; stated as believed; cited from earlier work
colon cancer [4] = details: cited from earlier work; for survival among colon cancer patients: 5-fluorouracil alone or with levamisole
small bowel = system: small bowel; parameters: species or system Female Sprague-Dewley rats; details: rat, in vivo
Procedure: The term "with reduced gastrointestinal toxicity" as used herein means that the administration of the particular R-NSAID is less ulcerogenic to the gastrointestinal tract of the human or other mammal than the corresponding racemate or S-NSAID. One measure of ulcerogenic activity is the small bowel ulcer score. A rat is treated daily through oral administration of the R-NSAID for 30 days. At the end of the 30 days, the rat is sacrificed and the intestines removed. Lesions of appreciable size in the mucosa are measured. A cumulative score equaling the sum of the diameters of the ulcers measured are reported as the ulcer score. An ulcer score essentially equal to that of a control rat, or a reduction of the ulcer score of at least 50 to 90%, preferably at least 80%, as compared to the corresponding S-NSAID or racemate, is considered a reduction in gastrointestinal toxicity.
as §1, §2

neutrophil traffic = test: effect on neutrophil traffic in the normal rat; format: in vivo; details: for neutrophil adhesiveness and extravasation: post-capillary venules and surrounding tissue
gastric mucosa = details: in vivo; cited from earlier work
colon cancer [5] = details: cited from earlier work; for prevention of cancer of the large bowel and rectum: causal relationship with use identified by the reference

CC(C(=O)O)c1ccc(-c2ccccc2)c(F)c1 (racemic) [racemic flurbiprofen]
LI, result in words ([1]; equal-molar doses of both enantiomers (racemic 12.5 mg/Kg/day), relative to R- and S-flurbiprofen groups): further reduced

CC(C)Cc1ccc(C(C)C(=O)O)cc1 (racemic) [racemic ibuprofen]
progression of the lung disease ([2]; high doses, four-year period, cystic fibrosis patients): slows progression of the lung disease | side effects at high doses ([2]; human, in vivo): conjunctivitis and epistaxis | leukopenia/agranulocytosis syndrome [3]: leukopenia/agranulocytosis syndrome has been described | influx of neutrophils to the alveolar crevices (neutrophils): inhibits the influx of neutrophils to the alveolar crevices

O=c1[nH]cc(F)c(=O)[nH]1 [5-fluorouracil]
survival among colon cancer patients (colon cancer [4]): No improvement in survival

C[C@@H](C(=O)O)c1ccc(-c2ccccc2)c(F)c1 [R-flurbiprofen]
ulcerogenicity, in words (small bowel): much less ulcerogenic than its S-enantiomer | effect on neutrophil traffic relative to the S-enantiomer (neutrophil traffic): as effective as the S-enantiomer | neutrophil adhesiveness and extravasation (neutrophil traffic): produce neutrophil adhesiveness in the post-capillary venules and extravasation of neutrophils into the surrounding tissue | cell proliferation in the distal colon, in words [1]: suppresses cell proliferation in the distal colon | LI (Labelling Index) [1]: 8.71

CC(C)Cc1ccc([C@H](C)C(=O)O)cc1 [S(+) ibuprofen]
gastrointestinal side effects ([2]; human, in vivo): severely limit the chronic use of this therapy

C[C@H](C(=O)O)c1ccc(-c2ccccc2)c(F)c1 [S-flurbiprofen]
neutrophil adhesiveness and extravasation (neutrophil traffic): produce neutrophil adhesiveness in the post-capillary venules and extravasation of neutrophils into the surrounding tissue | LI (Labelling Index) [1]: 9.09

CC(=O)Oc1ccccc1C(=O)O [aspirin]
damage and irritation of the gastric mucosa (gastric mucosa): cause damage and irritation of the gastric mucosa | protection against colon cancer (colon cancer [5]; epidemiologic survey): confer protection against colon cancer

COc1ccc2c(c1)c(CC(=O)O)c(C)n2C(=O)c1ccc(Cl)cc1 [indomethacin]
damage and irritation of the gastric mucosa (gastric mucosa): cause damage and irritation of the gastric mucosa | leukopenia/agranulocytosis syndrome [3]: leukopenia/agranulocytosis syndrome has been described | prevention of cancer of the large bowel and rectum (colon cancer [5]): prevention of cancer of the large bowel and rectum

CC(C(=O)O)c1cccc(C(=O)c2ccccc2)c1 (stereo not drawn) [ketoprofen]
leukopenia/agranulocytosis syndrome [3]: leukopenia/agranulocytosis syndrome has been described

c1ccc([C@H]2CN3CCSC3=N2)cc1 [levamisole]
survival among colon cancer patients (colon cancer [4]): improved survival rate | T-cell count / immune system (colon cancer [4]; human, in vivo): stimulate the immune system and increase T-cell count

CN1C(C(=O)Nc2ccccn2)=C(O)c2ccccc2S1(=O)=O [peroxicam]
prevention of cancer of the large bowel and rectum (colon cancer [5]): prevention of cancer of the large bowel and rectum

CC1=C(CC(=O)O)c2cc(F)ccc2/C1=C\c1ccc([S+](C)[O-])cc1 (stereo not drawn) [sulindac]
prevention of cancer of the large bowel and rectum (colon cancer [5]): prevention of cancer of the large bowel and rectum
